Experimental data published in patent US20160095843A1, “PYRAZOLOPYRROLIDINE DERIVATIVES AND THEIR USE IN THE TREATMENT OF DISEASE” (NOVARTIS AG, priority 2013, published 2016).
Like-named read-outs stand apart in the source and are kept apart here.

Assays:
CREBBP = biological target: T1, CREBBP (Homo sapiens, UniProt Q92793); assay: AlphaScreen in-vitro binding assay for CREBBP; details: Biochemical IC50 values, His-CREBBP(1081-1197)
T1 construct: 324 nM His-CREBBP(1081-1197) (custom production at Viva Biotech Ltd.)
Protocol: AlphaScreen In-Vitro Binding Assay for CREBBP
In order to assess bromodomain selectivity, we set up a binding assay using the bromodomain encoded by the CREBBP gene. […] Reactions were incubated at 30° C. for 35 minutes. Subsequently 4.5 μL per well detection mix (50 mM HEPES, pH 7.5, 0.005% Tween20, 0.02% BSA, 150 mM NaCl, 45 μg/ml Ni-chelate acceptor beads, 45 μg/mL streptavidin-donor beads) (Perkin Elmer)) were added. After 60 minutes incubation at room temperature, plates were measured in a Perkin Elmer EnVision multilabel reader. IC50 values were determined from percent inhibition values at different compound concentrations by non-linear regression analysis.
(§1) Preparation of Compound Dilutions
Test compounds were dissolved in DMSO (10 mM) and transferred into 1.4 mL flat bottom or V-shaped Matrix tubes carrying a unique 2D matrix. The stock solutions were stored at […] if not used immediately. For the test procedure the vials were defrosted and identified by a scanner whereby a working sheet was generated that guided the subsequent working steps. Compound dilutions were made in 96 well plates. This format enabled the assay of maximally 40 individual test compounds at 8 concentrations (single points) including 4 reference compounds, if desired (known BET inhibitors from the prior art, for this and other assays of the type disclosed herein). […]

BRD2 = biological target: T2, BRD2 (Homo sapiens, UniProt P25440); assay: TR-FRET in-vitro binding assay for BRD2; details: Biochemical IC50 values, His-Brd2(60-472)
T2 construct: 45 nM His-Brd2(60-472) or 45 nM His-Brd3(20-477)
Protocol: (§2) TR-FRET In-Vitro Binding Assays for BRD2, BRD3, and BRD4:
(§3) All assays were performed in 384-well microtiter plates. Each assay plate contained 8-point serial dilutions for 40 test compounds, plus 16 high- and 16 low controls. Liquid handling and incubation steps were done on an Innovadyne Nanodrop Express equipped with a robotic arm (Thermo CatX, Perkin Elmer/Caliper Twister II) and an incubator (Liconic STX40, Thermo Cytomat 2C450). The assay plates were prepared by addition of 50n1 per well of compound solution in 90% DMSO HummingBird nanodispenser (Zinsser Analytic). […] Reactions were incubated at 30° C. for 35 minutes. […] After 35 minutes incubation at 30° C., plates were measured in a Perkin Elmer EnVision multilabel reader.
as §1
(§4) Test compounds were dissolved in DMSO (10 mM) and transferred into 1.4 mL flat bottom or V-shaped Matrix tubes carrying a unique 2D matrix. The stock solutions were stored at […] if not used immediately. For the test procedure the vials were defrosted and identified by a scanner whereby a working sheet was generated that guided the subsequent working steps. Compound dilutions were made in 96 well plates. This format enabled the assay of maximally 40 individual test compounds at 8 concentrations (single points) including 4 reference compounds, if desired (known BET inhibitors from the prior art, for this and other assays of the type disclosed herein). The dilution protocol included the production of “pre-dilution plates”, “master plates” and “assay plates”.
(§5) Polypropylene 96-well plates were used as pre-dilution plates. […] All dilution steps were done on a HamiltonSTAR robot.
(§6) These plates were used directly for the assay which was performed in a total volume of 13.55 μL.

BRD3 = biological target: T3, BRD3 (Homo sapiens, UniProt Q15059); assay: TR-FRET in-vitro binding assay for BRD3; details: Biochemical IC50 values, His-Brd3(20-477)
T3 construct: 45 nM His-Brd3(20-477) or 45 nM His-Brd4(44-477)
Protocol: as §2, §3, §1, §4, §5, §6

MV-4-11 cells = assay: Cell growth inhibition assay (CellTiter-Glo), MV-4-11; format: cell-based; details: Homo sapiens, MV4-11
Method in brief: (§7)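 Leukemia lines grown in their own media were exposed for 4 days at 37° C. to 3-fold serial dilutions from 10 μM (0.1% DMSO). Viability by CellTiter-Glo ATP luminescence, corrected for background and day-0 plate; IC50 and TGI from four-parameter fit against vehicle (100%) and medium (−100%).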

THP-1 cells = assay: Cell growth inhibition assay (CellTiter-Glo), THP-1; format: cell-based; details: Homo sapiens
Method in brief: as §7

K-562 cells = assay: Cell growth inhibition assay (CellTiter-Glo), K-562; format: cell-based, human
Method in brief: as §7

[1] = biological target: T4, nuclear BRD4-NUT foci in HCC2494 NUT midline carcinoma cells (Homo sapiens, UniProt O60885+Q86Y26); assay: Nut-foci formation assay; format: cell-based; details: 24 hours, NUT-foci per nucleus, read-out: HCS Brd4-NUT IC50
T4 construct: HCC2494 NUT midline carcinoma cells (expressing BRD4-NUT-fusion)
Protocol: HCC2494 NUT midline carcinoma cells (expressing BRD4-NUT-fusion) were obtained from the University of Texas Southwestern and cultured in RPMI-1640 medium containing 10% Foetal Calf Serum at 37° C. in a humidified 5% CO2 incubator.
Compound-mediated inhibition of BRD4 activity was monitored by quantification of the number and intensity of nuclear BRD4-NUT foci using automated immunofluorescence microscopy. Briefly, 5000 cells in 20 μL fresh medium were seeded into Poly-D-Lysine-precoated 384-well plates and incubated overnight at 37° C. and 5% CO2, followed by addition of 5 μl medium containing compound dilutions at 5-fold their final intended concentration. Dose-response effects were assessed by 3-fold serial dilutions of the test compound, starting at 10 μM. […] Assay plates were imaged using the appropriate filter sets on the Cellomics VTi automated fluorescence microscopy platform (ThermoFisher Scientific) and the population average of the number of NUT-foci per nucleus is quantified using the Cellomics Spot Detection BioApplication image analysis algorithm (ThermoFisher Scientific). The effect of a particular test compound concentration on NUT-foci number and intensity is expressed as percentage of the value obtained for cells treated with vehicle only (DMSO, 0.1% final concentration), which was set as 100. […]

BRD4 = biological target: T5, BRD4 (Homo sapiens, UniProt O60885); assay: TR-FRET in-vitro binding assay for BRD4; details: Biochemical IC50 values, His-Brd4(44-477)
T5 construct: 45 nM His-Brd4(44-477) all proteins produced in-house
Protocol: as §2, §3, §1, §4, §5, §6

T3 sequence (Q15059 20-477): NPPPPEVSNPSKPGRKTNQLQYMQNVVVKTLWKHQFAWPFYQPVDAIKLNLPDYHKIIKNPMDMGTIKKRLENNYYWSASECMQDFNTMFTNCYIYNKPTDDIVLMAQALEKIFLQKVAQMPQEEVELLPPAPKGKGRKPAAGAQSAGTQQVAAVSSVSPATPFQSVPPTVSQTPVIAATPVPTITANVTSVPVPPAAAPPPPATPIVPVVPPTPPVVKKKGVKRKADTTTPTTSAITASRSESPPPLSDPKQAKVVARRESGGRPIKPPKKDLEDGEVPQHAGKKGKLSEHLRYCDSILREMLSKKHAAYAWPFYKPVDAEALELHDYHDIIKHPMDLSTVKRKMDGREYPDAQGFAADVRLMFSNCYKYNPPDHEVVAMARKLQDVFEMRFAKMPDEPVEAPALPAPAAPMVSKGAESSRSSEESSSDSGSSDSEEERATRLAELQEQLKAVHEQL
T2 sequence (P25440 60-472): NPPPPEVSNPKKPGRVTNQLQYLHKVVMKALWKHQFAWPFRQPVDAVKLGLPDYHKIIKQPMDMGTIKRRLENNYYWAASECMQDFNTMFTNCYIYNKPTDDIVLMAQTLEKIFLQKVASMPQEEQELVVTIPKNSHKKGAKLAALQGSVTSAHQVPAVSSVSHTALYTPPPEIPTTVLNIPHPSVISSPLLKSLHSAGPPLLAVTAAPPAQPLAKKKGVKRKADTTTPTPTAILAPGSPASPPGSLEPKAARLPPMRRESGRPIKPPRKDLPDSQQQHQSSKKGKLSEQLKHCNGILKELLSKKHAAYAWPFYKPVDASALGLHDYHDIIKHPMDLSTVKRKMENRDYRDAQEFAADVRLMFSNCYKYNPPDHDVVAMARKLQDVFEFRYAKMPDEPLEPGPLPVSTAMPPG
T1 sequence (Q92793 1081-1197): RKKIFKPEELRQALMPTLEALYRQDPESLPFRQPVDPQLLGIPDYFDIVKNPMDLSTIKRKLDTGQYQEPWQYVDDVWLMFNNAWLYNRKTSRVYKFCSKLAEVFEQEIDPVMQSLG

Row | Structure (SMILES) | IC50 (BRD2) | IC50 (BRD3) | GI50 (MV-4-11 cells) | GI50 (THP-1 cells) | GI50 (K-562 cells; Homo sapiens, K562) | IC50 (BRD4) | further results
1 | Cc1nn(C2CC2)c2c1C(c1ccc(Cl)cc1)N(c1cc(C)c(=O)n(C)c1)C2=O (racemic) [Example 23, 4-(4-chlorophenyl)-1-cyclopropyl-5-(1,5-dimethyl-6-oxo-1,6-dihydropyridin-3-yl)-3-methyl-4,5-dihydropyrrolo-[3,4-c]pyrazol-6(1H)-one] | 0.099 µM | 0.074 µM |  |  |  |  | IC50 (CREBBP): 3.9 µM
2 | CNc1cc(N2C(=O)c3c(c(C)nn3C3CC3)C2c2ccc(Cl)cc2)nn2c(C)nnc12 (racemic) [Example 113, 4-(4-chlorophenyl)-1-cyclopropyl-3-methyl-5-(3-methyl-8-(methylamino)-[1,2,4]triazolo[4,3-b]pyridazin-6-yl)-4,5-dihydropyrrolo-[3,4-c]pyrazol-6(1H)-one] |  |  | 84 nM | 112 nM | 511 nM |  | IC (TGI) (MV-4-11 cells): 127 nM; IC (TGI) (THP-1 cells): 234 nM; IC (TGI) (K-562 cells; Homo sapiens, K562): > 10000 nM; IC50 [1]: 151 nM
3 | Cc1cc(N2C(=O)c3nn(C)cc3[C@@H]2c2ccc(Cl)cc2)cn(C)c1=O [Example 15, (S)-4-(4-chlorophenyl)-5-(1,5-dimethyl-6-oxo-1,6-dihydropyridin-3-yl)-2-methyl-4,5-dihydropyrrolo[3,4-c]pyrazol-6(2H)-one] | > 6.7 µM |  |  |  |  | > 6.7 µM | 
4 | Cc1cc(N2C(=O)c3nn(C4CC4)c(C)c3[C@@H]2c2ccc(Cl)cc2)cn(C)c1=O [Example 22, (S)-4-(4-chlorophenyl)-2-cyclopropyl-5-(1,5-dimethyl-6-oxo-1,6-dihydropyridin-3-yl)-3-methyl-4,5-dihydropyrrolo[3,4-c]pyrazol-6(2H)-one] |  | > 6.7 µM |  |  |  | > 6.7 µM | 
5 | Cc1nn(C2CC2)c2c1[C@H](c1ccc(Cl)cc1)N(c1cc(Cl)c(=O)n(C)c1)C2=O [Example 50, (S)-5-(5-chloro-1-methyl-6-oxo-1,6-dihydropyridin-3-yl)-4-(4-chlorophenyl)-1-cyclopropyl-3-methyl-4,5-dihydropyrrolo[3,4-c]pyrazol-6(1H)-one] |  | > 6.7 µM |  |  |  | > 6.7 µM | 
6 | COc1ncc(-n2nc3c(c2C(C)C)[C@H](c2ccc(Cl)cc2)N(c2cc(C)c4onc(C)c4c2)C3=O)c(OC)n1 [Example 61, (S)-4-(4-chlorophenyl)-2-(2,4-dimethoxypyrimidin-5-yl)-5-(3,7-dimethylbenzo[d]isoxazol-5-yl)-3-isopropyl-4,5-dihydropyrrolo-[3,4-c]pyrazol-6(2H)-one] | > 37 µM |  | 948 nM | 2430 nM | > 10000 nM |  | 
7 | Cc1nn(C2CC2)c2c1[C@H](c1ccc(Cl)cc1)N(c1cc(C)c3nnc(C)n3c1)C2=O [Example 118, (S)-4-(4-chlorophenyl)-1-cyclopropyl-5-(3,8-dimethyl-[1,2,4]triazolo[4,3-a]pyridin-6-yl)-3-methyl-4,5-dihydropyrrolo-[3,4-c]pyrazol-6(1H)-one] |  | > 37 µM | 1640 nM | 3160 nM | > 10000 nM |  | IC50 (CREBBP): > 37 µM; IC (TGI) (K-562 cells): >10000 nM
8 | Cc1nn(C2CC2)c2c1C(c1ccc(Cl)cc1)N(c1cc(C)c3nnc(C(F)F)n3n1)C2=O (centres unmarked) [Example 195, 4-(4-chlorophenyl)-1-cyclopropyl-5-(3-(difluoromethyl)-8-methyl-[1,2,4]triazolo[4,3-b]pyridazin-6-yl)-3-methyl-4,5-dihydropyrrolo-[3,4-c]pyrazol-6(1H)-one] |  |  | 23.9 nM | 30.3 nM | 127 nM |  | 
9 | Cc1[nH]nc2c1C(c1ccc(Cl)cc1F)N(c1cc(C)c(=O)n(C)c1)C2=O (centres unmarked) [Example 196, 4-(4-chloro-2-fluorophenyl)-5-(1,5-dimethyl-6-oxo-1,6-dihydropyridin-3-yl)-3-methyl-4,5-dihydropyrrolo-[3,4-c]pyrazol-6(2H)-one] |  |  | 144 nM | 204 nM | 921 nM |  | 
